Experimental data as given in patent publication US5728563A, “Cyclic nucleotide phosphodiesterase and a method for production thereof” (Taisho Pharmaceutical Co., Ltd., priority 1993, dated 1998).
“Also recorded” adds a separate entry of the source.

Key:
Type in all cases: biochemical
[1] = tested on: cyclic nucleotide phosphodiesterase (the enzyme of the present invention) isolated from rat cerebral cortex; experiment: Effect of metal ions on the enzymatic activity
Experimental: (§1) The mixture is reacted at 30° C. Ten minutes after, the reaction mixture is put in a heat bath of 100° C. to terminate the reaction in 5 minutes. That is, the enzyme of the present invention is inactivated by heating at 100° C. A test tube charged with the reaction mixture is then ice-cooled. Next, 50 μg of snake venom, which contains 5'-nucleotidase, is added to and reacted with the reaction mixture at 30° C. for 10 minutes. […] 5'-AMP, which is then with 5'-nucleotidase in snake venom to form [8-^3 H] adenosine. After 4 ml of water is added to this reaction mixture, the mixture is adsorbed onto a column packed with cation exchange resin (AG50 WX4, Bio-Rad). After thoroughly rinsing, the reaction product [8-^3 H] adenosine is eluted with 1.5 ml 3N NH4 OH. The radioactivity of the eluted [8-^3 H] adenosine is measured to determine the enzymatic activity of the present invention.

[2] = biological target: cyclic nucleotide phosphodiesterase (the enzyme of the present invention) isolated from rat cerebral cortex; experiment: Effects of inhibitors on the enzymatic activity (two-step assay, cAMP hydrolysis); settings: for IC50: enzymatic activity in the absence of inhibitor made 100%; for inhibition compared to PDEI, PDEIII or PDEIV: comparison with the known isozyme that the inhibitor acts on
Experimental: The activity of the enzyme of the present invention was determined by the two-step assay (Masuoka et al., Biochem. Biophys. Res. Commun., 169, 315-322, 1990).
Using various inhibitors which are known to inhibit the activity of PDEI, III or IV, the enzymatic activity of the enzyme of the present invention was measured by varying the concentration of these inhibitors.
as §1
The enzymatic activity of the enzyme of the present invention was measured by varying the concentrations of various inhibitors. […] In more detail, during the reaction with the enzyme of the present invention in assaying for the enzymatic activity described in Example, an inhibitor having various concentrations was further added to the reaction mixture to determine the enzymatic activity.

[3] = tested on: cyclic nucleotide phosphodiesterase (the enzyme of the present invention) isolated from rat cerebral cortex; experiment: Substrate specificity, Km by double reciprocal plots; settings: substrate varied 0.06 μM to 100 μM
[4] = tested on: cyclic nucleotide phosphodiesterase (the enzyme of the present invention) isolated from rat cerebral cortex; experiment: Effect of activators (calcium-calmodulin, cGMP) on cAMP hydrolysis; settings: 0.4 μg/ml calmodulin plus 0.2 mM calcium chloride versus 2 mM EGTA; or 10 μM cGMP
Experimental: Effects on the enzyme of the present invention were analyzed by adding 0.4 μg/ml calmodulin purified from bovine brain and 0.2 mM calcium chloride.
The mixture is reacted at 30° C. Ten minutes after, the reaction mixture is put in a heat bath of 100° C. to terminate the reaction in 5 minutes. That is, the enzyme of the present invention is inactivated by heating at 100° C. A test tube charged with the reaction mixture is then ice-cooled. Next, 50 μg of snake venom, which contains 5'-nucleotidase, is added to and reacted with the reaction mixture at 30° C. for 10 minutes. […] After 4 ml of water is added to this reaction mixture, the mixture is adsorbed onto a column packed with cation exchange resin (AG50 WX4, Bio-Rad). After thoroughly rinsing, the reaction product [8-^3 H] adenosine is eluted with 1.5 ml 3N NH4 OH. The radioactivity of the eluted [8-^3 H] adenosine is measured to determine the enzymatic activity of the present invention.

## [Ba+2] [Ba^2+]
[1]
  effect as metal cation / cofactor for the enzymatic reaction: no ability as a cofactor

## [Ca+2] [Ca^2+]
[1]
  effect as metal cation / cofactor for the enzymatic reaction: no ability as a cofactor

## [Co+2] [Co^2+]
[1]
  concentrations with inhibitory effect: above 100 μM
  concentrations with stimulatory effect: less than 100 μM

## [Cu+2] [Cu^2+]
[1]
  effect as metal cation / cofactor for the enzymatic reaction: no ability as a cofactor

## CC(C)Cn1c(=O)n(C)c(=O)c2[nH]cnc21 [IBMX, 3-isobutyl-1-methylxanthine]
[2]
  IC50: 26.5 ± 2.5 µM

## [Cl-].[Cl-].[Mg+2] [Magnesium, magnesium chloride]
[1]
  concentration at which the enzyme was activated: 1 µM
  concentration at which the maximum effect/activity was observed: over 5 mM
  effect as metal cation / cofactor for the enzymatic reaction: most efficient metal cation

## [Mn+2] [Manganese]
[1]
  effect as metal cation / cofactor for the enzymatic reaction: relatively stimulatory effect

## [Ni+2] [Ni^2+]
[1]
  effect as metal cation / cofactor for the enzymatic reaction: no ability as a cofactor

## CCCCOc1cc(CC2CNC(=O)N2)ccc1OC (centres unmarked) [Ro20-1724, 4-(3-buthoxy-4-methoxybenzyl)-2-imidazolidinone]
[2]
  inhibition compared to PDEI, PDEIII or PDEIV: less inhibited
  IC50: > 300 µM

## CC(=O)Nc1ccc(-c2c[nH]c(=O)cn2)cc1 [SK&F94120, 5-(4-acetamidophenyl)pyrazin-1H-one]
[2]
  inhibition compared to PDEI, PDEIII or PDEIV: not inhibited
  IC50: > 300 µM

## [Zn+2] [Zn^2+]
[1]
  effect as metal cation / cofactor for the enzymatic reaction: no ability as a cofactor

## Nc1nc2c(ncn2[C@@H]2O[C@@H]3COP(=O)(O)O[C@H]3[C@H]2O)c(=O)[nH]1 [cGMP, cyclic guanosine 3',5'-monophosphate]
[3]
  Km: 1.78 µM
[4]
  activation of the enzyme / sensitivity of the enzymatic activity: insensitive; also recorded: not activated

## O=C1CCc2cc(OCCCCc3nnnn3C3CCCCC3)ccc2N1 [cilostazol]
[2]
  inhibition compared to PDEI, PDEIII or PDEIV: not inhibited
  IC50: > 300 µM

## COC(=O)C1=C(C)NC(C)=C(C(=O)OCCN(C)Cc2ccccc2)C1c1cccc([N+](=O)[O-])c1 (centres unmarked) [nicardipine]
[2]
  inhibition compared to PDEI, PDEIII or PDEIV: less inhibited
  IC50: > 300 µM
[2]; unit inferred
  IC50: > 300 µM

## COc1ccc(Cc2nccc3cc(OC)c(OC)cc23)cc1OC [papaverine]
[2]; Dixon plots, varying cAMP and papaverine concentrations, read-out: inhibition constant (Ki value)
  Ki: 0.036 µM

## COc1ccc(C2CNC(=O)C2)cc1OC1CCCC1 (centres unmarked) [rolipram]
[2]
  inhibition compared to PDEI, PDEIII or PDEIV: less inhibited
  IC50: > 300 µM
